Data as given in PubChem BioAssay (NCI).
Values joined by “and” are separate entries in the source; they are usually repeats but may differ in a detail not shown here. Identical values can stand only once.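 In this assay, cells in 96-well plates receive the compound at five concentrations for 48 hours. Endpoints are linearly interpolated between the surrounding concentrations. Here, GI50 denotes the concentration required for 50% inhibition of growth. TGI: concentration producing complete growth inhibition.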

How the values were obtained:
Test in all cases: growth of human tumour cells (NCI), 48 h
BT-549 breast = test system: BT-549 breast
CCRF-CEM leukemia = test system: CCRF-CEM leukemia
COLO 205 colon = test system: COLO 205 colon
EKVX NSCLC = test system: EKVX NSCLC
HOP-92 NSCLC = test system: HOP-92 NSCLC
K-562 leukemia = test system: K-562 leukemia
MALME-3M melanoma = test system: MALME-3M melanoma
NCI-H226 lung = test system: NCI-H226 lung
NCI-H23 lung = test system: NCI-H23 lung
TK-10 renal = test system: TK-10 renal

SMILES | TGI (BT-549 breast) [µM] | TGI (CCRF-CEM leukemia) | TGI (COLO 205 colon) | TGI (EKVX NSCLC) | TGI (HOP-92 NSCLC) | TGI (K-562 leukemia) | TGI (MALME-3M melanoma) | TGI (NCI-H226 lung) | TGI (NCI-H23 lung) | TGI (TK-10 renal) [µM] | GI50 (CCRF-CEM leukemia) | GI50 (COLO 205 colon) | GI50 (EKVX NSCLC) [µM] | GI50 (HOP-92 NSCLC) | GI50 (K-562 leukemia) [µM] | GI50 (MALME-3M melanoma) [µM] | GI50 (NCI-H226 lung) | GI50 (NCI-H23 lung) [µM]
COC(=O)c1ccc(C)cc1C1CN=NC12Cc1cccc(C)c1C2=O (stereo unspecified) | 91.4 | 92.8 µM | > 100 µM | > 100 µM | > 100 µM | 68.4 µM | 96.6 µM | 73.6 µM | > 100 µM | > 100 |  |  |  |  |  |  |  | 
O=C1CC(c2cccc([N+](=O)[O-])c2)C2(C(=O)NC(=S)NC2=O)C(c2cccc([N+](=O)[O-])c2)C1 (stereo unspecified) | 81.4 | 97.1 µM | > 100 µM | 74.1 µM | > 100 µM | > 100 µM | 53.2 µM | 59.9 µM | > 100 µM | 47.7 |  |  |  |  |  |  |  | 
Clc1cc(Cl)nc(Nc2ccc3c(c2)CCC3)n1 | > 100 | 72.8 µM | 46.9 µM | 71.5 µM | > 100 µM | 46 µM | 93.3 µM | > 100 µM | > 100 µM | > 100 |  |  |  |  |  |  |  | 
C[C@]12CC[C@H]3[C@@H](CC=C4C[C@@H](O)CC[C@@]43C)[C@@H]1C/C(=C\c1ccc([N+](=O)[O-])cc1)[C@@H]2O | 38 | > 100 µM | > 100 µM | 26.5 µM | 91.7 µM | > 100 µM | 53 µM | 55.2 µM | 51.7 µM | 55.2 |  |  |  |  |  |  |  | 
Cc1cc(C)c(S(=O)(=O)N(CCCCCN)OCCCN)c(C)c1 | 32.4 | 45.6 µM | 37.9 µM | 30.6 µM | 31 µM | 60.8 µM | 40.2 µM | 29.9 µM | 33.4 µM | 30.8 |  |  |  |  |  |  |  | 
CC(C)(C)OC(=O)NCC(c1c[nH]c2ccccc12)c1c[nH]c2ccccc12 | 35.1 | 44.7 µM | 29.1 µM | 26.2 µM | 27.5 µM |  | 33.2 µM | 44 µM | 36.4 µM | 28.9 |  |  |  |  |  |  |  | 
C=C1c2nc3ccccc3n2C=C(c2ccccc2)N1c1ccc(C)cc1 | > 100 | > 100 µM | > 100 µM | > 100 µM | > 100 µM | > 100 µM | > 100 µM | > 100 µM | > 100 µM | > 100 |  |  |  |  |  |  |  | 
C(=Nc1ccc(-c2nc3ccccc3s2)cc1)c1cccs1 | > 100 | 3.76 µM | > 100 µM | > 100 µM | 90.7 µM | > 100 µM | > 100 µM | > 100 µM | > 100 µM | 78 |  |  |  |  |  |  |  | 
C[C@H](CCc1nc(C#N)c(N)o1)[C@H]1CC[C@H]2[C@@H]3CCC4C[C@@H](O)CC[C@]4(C)[C@H]3C[C@@H](O)[C@]12C (stereo partly specified) | 14.7 | 0.445 µM | 31.2 µM | 27.8 µM | 28 µM | 39.6 µM | 28.4 µM | 25.1 µM | 32.7 µM | 28.6 |  |  |  |  |  |  |  | 
Cc1c2oc(=O)c(C#N)cc2c2ccccn12 | > 100 | > 100 µM | > 100 µM | > 100 µM | > 100 µM | > 100 µM | > 100 µM | > 100 µM | > 100 µM | > 100 |  |  |  |  |  |  |  | 
Cc1oc(N)c(S(=O)(=O)/C(C#N)=C/c2ccccc2[N+](=O)[O-])c1C | 48.2 | 68.5 µM | 40.3 µM | > 100 µM | > 100 µM | 60.4 µM | > 100 µM | > 100 µM | 79.4 µM | > 100 |  |  |  |  |  |  |  | 
O=C(NNC(=O)c1ccc(Cl)cc1NC(=O)C12CC3CC(CC(C3)C1)C2)c1ccc(Cl)cc1 | > 100 | 62.5 µM | 27.6 µM | 69.8 µM | 51.9 µM | > 100 µM | 38.5 µM | 65.1 µM | > 100 µM | 57.2 |  |  |  |  |  |  |  | 
O=S1(=O)N=C(SCc2c[nH]c3ccccc23)N(c2ccccc2)c2ccncc21 | > 100 | > 100 µM | > 100 µM | > 100 µM | > 100 µM | > 100 µM | > 100 µM | > 100 µM | > 100 µM | > 100 |  |  |  |  |  |  |  | 
C=CCN1C(=O)C[C@H](Cc2ccccc2)NC(=O)C[C@H](Cc2ccccc2)N(CC=C)C(=O)C[C@H](Cc2ccccc2)NC(=O)C[C@@H]1Cc1ccccc1 | > 100 | > 100 µM | 5.87 µM | 9.25 µM | 80.4 µM | > 100 µM | 50.6 µM | > 100 µM | > 100 µM | > 100 |  |  |  |  |  |  |  | 
COc1c(NC(C)=O)c2ccccc2c2ccccc12 | > 100 | > 100 µM |  | > 100 µM | > 100 µM | > 100 µM | > 100 µM | > 100 µM | > 100 µM | > 100 |  |  |  |  |  |  |  | 
CCOP(=O)(OCC)C(c1ccccc1)N(C(=O)NC(F)(F)F)c1ccc(C)cc1 (stereo unspecified) | > 100 | > 100 µM | > 100 µM | > 100 µM | > 100 µM | > 100 µM | > 100 µM | > 100 µM | > 100 µM | > 100 |  |  |  |  |  |  |  | 
COc1ccc(-c2csc3c2[N+]2(C)C=CC=C2C3N2CCCC2)cc1 (stereo unspecified) | 58.3 | > 100 µM | 42.6 µM | > 100 µM | 75.9 µM | > 100 µM | 50.5 µM | 26.5 µM | 44.7 µM | > 100 |  |  |  |  |  |  |  | 
COc1ccc(N=C(C)C(C)=Nc2ccc(OC)cc2)cc1 | > 100 | > 100 µM | 37.1 µM | > 100 µM | > 100 µM | > 100 µM | > 100 µM | > 100 µM | > 100 µM | > 100 |  |  |  |  |  |  |  | 
COC1(C)CCC(OS(C)(=O)=O)CO1 (stereo unspecified) | > 100 | > 100 µM | > 100 µM | > 100 µM | > 100 µM | > 100 µM | > 100 µM | > 100 µM | > 100 µM | > 100 |  |  |  |  |  |  |  | 
CC(Cl)(CCC(Cl)C(C)(C)Cl)C(=O)CBr (stereo unspecified) | 27.3 | > 21.5 µM | 18.4 µM | 30.9 µM | 20.8 µM | > 100 µM | 24.8 µM | 33.7 µM | 39.5 µM | 24.1 |  |  |  |  |  |  |  | 
C/C(CC(O)(C(F)(F)F)C(F)(F)F)=N\O | > 10 | > 10 µM | > 10 µM | > 10 µM | > 10 µM | > 10 µM | > 10 µM | > 10 µM | > 10 µM | > 10 |  |  |  |  |  |  |  | 
CC12CC(c3ccccc3O1)C(C(=O)Nc1nccs1)C(=O)N2 (stereo unspecified) | > 100 | > 100 µM | > 100 µM | 90.7 µM | > 100 µM | > 100 µM | > 100 µM | > 100 µM | > 100 µM | > 100 |  |  |  |  |  |  |  | 
CC1=NN(c2ccccc2)C(=O)/C1=C\c1c(C)[nH]n(-c2ccccc2)c1=O | > 100 | > 100 µM | > 100 µM | > 100 µM | 90.5 µM | > 100 µM | > 100 µM | > 100 µM | > 100 µM | > 100 |  |  |  |  |  |  |  | 
CNCC(SC)c1ccc(O)c(O)c1 (stereo unspecified) | 31 | 7.33 µM | 32.9 µM | 37.1 µM | 39.3 µM | 59 µM | 32.4 µM | > 100 µM | > 100 µM | 34 |  |  |  |  |  |  |  | 
O=C(O)c1c(CC(Cc2ccccc2)C(=O)O)ccc2c1CCC2 (stereo unspecified) | > 100 | > 100 µM | > 100 µM | > 100 µM | > 100 µM | > 100 µM | > 100 µM | > 100 µM | > 100 µM | > 100 |  |  |  |  |  |  |  | 
CCN(CC)CC[n+]1ccc2c(C)c3[nH]c4ccccc4c3c(C)c2c1 | 4.95 | 4.33 µM and 2.1 µM and 2.27 µM | 0.525 µM and 0.878 µM and 1.55 µM | 8.97 µM and 16.4 µM and 4.14 µM | 1.94 µM and 4.34 µM and 2.71 µM | 5.43 µM and 3.49 µM and 2.19 µM | 1.92 µM and 2.27 µM and 1.15 µM | 1.89 µM and 2.89 µM and 0.693 µM | 2.22 µM and 2.24 µM and 4.13 µM | 25.3 | 0.245 µM and 0.0957 µM | 0.131 µM and 0.297 µM and 0.412 µM | 1.48 | 0.342 µM and 0.833 µM and 0.242 µM | 0.1 | 0.374 | 0.346 µM and 0.529 µM and 0.0944 µM | 0.394
CC1(C)CC(=O)C2=C(C1)NC(=S)C(C#N)C2c1ccccc1 (stereo unspecified) | > 100 | > 100 µM | > 100 µM | > 100 µM | > 100 µM | > 100 µM | > 100 µM | > 100 µM | > 100 µM | > 100 |  |  |  |  |  |  |  | 
CC1(C)Cc2ccccc2C(C)(Cl)C(=O)N1 (stereo unspecified) | > 10 | > 10 µM | > 10 µM | > 10 µM | > 10 µM | > 10 µM | > 10 µM | > 10 µM | > 10 µM | > 10 |  |  |  |  |  |  |  | 
COC(=O)CCCc1nc2ccccc2nc1N=Nc1ccccc1 | > 100 | 72.7 µM | 31.2 µM | > 100 µM | > 100 µM | 58.2 µM | 74.7 µM | > 100 µM | > 100 µM | > 100 |  |  |  |  |  |  |  | 
CC(C)(C)c1cc(C(C)(C)C)c(SC2OC(CO)C(O)C(O)C2O)c(O)c1O (stereo unspecified) | 27 | > 34.7 µM | > 81.4 µM | > 53.3 µM | > 42.6 µM | > 39.8 µM | 26.9 µM | 36.7 µM | 17.9 µM | 46.3 |  |  |  |  |  |  |  | 
